The source of these data is patent US8252822B2, “Heterocyclic compounds and uses as anticancer agents” (Acea Biosciences, Inc., priority 2007, dated 2012).

For data set [1], the system named is A549 cells. As to the kind of experiment: RT-CES cell proliferation inhibition, A549. It is filed as cell-based, Human. The source says:
The biological activity of compounds disclosed herein was monitored and profiled using the Real-Time Cell Electronic Sensing (RT-CES®) system from ACEA Biosciences, Inc. The RT-CES system utilizes cell-substrate impedance technology to monitor cellular behavior inside tissue culture wells in a microtiter plate format. The technology features in the integration of molecular and cell biology with microelectronics and is based on the electronic detection of biological assay process. The details of this cell electronic sensing technology and associated devices, systems and methods of use as described in U.S. provisional application No. 60/379,749, filed on Jul. 20, 2002; U.S. provisional application No. 60/435,400, filed on Dec. 20, 2002; U.S. Provisional application 60/469,572, filed on May 9, 2003, PCT application number PCT/US03/22557, filed on Jul. 18, 2003; PCT application number PCT/US03/22537, filed on Jul. 18, 2003; U.S. patent application Ser. No. 10/705,447, filed on Nov. 10, 2003; U.S. patent application Ser. No. 10/705,615, filed on Nov. 10, 2003, each of which is incorporated by reference. Additional details of RT-CES technology is further disclosed in U.S. provisional application No. 60/519,567, filed on Nov. 12, 2003, and U.S. provisional application No. 60/542,927, filed on Feb. 9, 2004.
For measurement of cell-substrate or cell-electrode impedance using RT-CES technology, microelectrodes having appropriate geometries are fabricated onto the bottom surfaces of microtiter plate or similar device, facing into the wells. Cells are introduced into the wells of the devices, and make contact to and attach to the electrode surfaces. The presence, absence or change of properties of cells affects the electronic and ionic passage on the electrode sensor surfaces. Measuring the impedance between or among electrodes provides important information about biological status of cells present on the sensors. When there are changes to the biological status of the cells analogue electronic readout signals are measured automatically and in real time, and are converted to digital signals for processing and for analysis. In a RT-CES system, a cell index (arbitrary representation of change in impedance) is automatically derived and provided based on measured electrode impedance values. The cell index obtained for a given well reflects: 1) how many cells are attached to the electrode surfaces in this well; 2) how well cells are attached to the electrode surfaces in this well. Thus, the more the cells of same type in similar physiological conditions attach the electrode surfaces, the larger the cell index. And, the better the cells attach to the electrode surfaces (e.g., the cells spread-out more to have larger contact areas, or the cells attach tighter to electrode surfaces), the larger the cell index.
The RT-CES system comprises three components, an electronic sensor analyzer, a device station and 16× or 96× microtiter devices. Microelectrode sensor array was fabricated on glass slides with lithographical microfabrication methods and the electrode-containing slides are assembled to plastic trays to form electrode-containing wells. The device station receives the 16× or 96× microtiter plate devices and is capable of electronically switching any one of the wells to the sensor analyzer for impedance measurement. In operation, the devices with cells cultured in the wells are placed into a device station that is located inside an incubator. Electrical cables connect the device station to the sensor analyzer. Under the RT-CES software control, the sensor analyzer can automatically select wells to be measured and continuously conduct impedance measurements. The impedance data from the analyzer is transferred to a computer, analyzed and processed by the integrated software.
To quantify cell status based on the measured cell-electrode impedance, a parameter termed Cell Index is derived. […]

For orientation: melting point means the temperature of the solid-liquid transition. As to `Br.Cc1nc2sccn2c1-c1csc(Nc2ccc(Br)cc2)n1`, the melting point is > 250 °C.
Usually IC50 stands for the concentration that inhibits the measured activity by half. For the molecule `Br.Cc1nc2sccn2c1-c1csc(Nc2ccc(Br)cc2)n1` [Compound 28, 2-(4-bromophenyl)amino-4-(6-methylimidazo[2,1-b]thiazol-5-yl)thiazole], the “response pattern of A549 cells compared with paclitaxel” value in data set [1] (140 nM of compound vs 12.5 nM of paclitaxel) and in data set [1] (560 nM of compound vs 25 nM of paclitaxel) was “somewhat similar” throughout. Also, in data set [1] (A549, complex kinetic responses), the “concentration at or above which cell indices first decreased with time and then increased” value was ≥ 0.14 µM. Also, in data set [1] (Homo sapiens, A549, 24 hours after compound treatment, normalized Cell Index, read-out: IC50 (24 hr)), the 50% inhibitory concentration (IC50) was 86.4 nM. Besides, the “inhibitory ability against the proliferation of A549 cells” value in data set [1] (various concentrations studied, time-dependent cell index) is recorded as “exhibited inhibitory ability against the proliferation of A549 cells”.
